Where “and” joins values, the source holds several entries; their conditions need not be identical. Equal entries are not always repeated. Inconclusive results and toxic doses are left out. No stated cut-off is given here; in the data, active means T/C of 150% or more; inactive means T/C below 125%.
Tested on: L1210 leukemia ip in BDF1 mice, survival T/C
Test: NCI In Vivo Anticancer Drug Screen. Data for tumor model L1210 Leukemia (intraperitoneal) in B6D2F1 (BDF1) mice
Conditions: endpoint: mean survival time, higher = longer survival
Outline: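 Ratio derived from survival: compound-dosed mice over vehicle-dosed mice, all bearing a transplantable tumor.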

[1] = dose: 50.0 mg/kg/injection, schedule: Q01DX009 (ip), vehicle: saline
[2] = dose: 100.0 mg/kg/injection, schedule: Q01DX009 (ip), vehicle: saline
[3] = dose: 200.0 mg/kg/injection, schedule: Q01DX009 (ip), vehicle: saline
[4] = dose: 100.0 mg/kg/injection, schedule: Q01DX009 (ip), vehicle: Klucel (hydroxypropylcellulose) (HPC)
[5] = dose: 200.0 mg/kg/injection, schedule: Q01DX009 (ip), vehicle: Klucel (hydroxypropylcellulose) (HPC)
[6] = dose: 400.0 mg/kg/injection, schedule: Q01DX009 (ip), vehicle: Klucel (hydroxypropylcellulose) (HPC)
[7] = dose: 100.0 mg/kg/injection, schedule: Q01DX001 (ip), vehicle: saline
[8] = dose: 200.0 mg/kg/injection, schedule: Q01DX001 (ip), vehicle: saline
[9] = dose: 400.0 mg/kg/injection, schedule: Q01DX001 (ip), vehicle: saline
[10] = dose: 100.0 mg/kg/injection, schedule: Q01DX009 (ip), vehicle: saline with Tween-80
[11] = dose: 100.0 mg/kg/injection, schedule: Q01DX001 (ip), vehicle: carboxymethylcellulose (CMC)
[12] = dose: 100.0 mg/kg/injection, schedule: Q04DX003 (ip), vehicle: saline with Tween-80
[13] = dose: 200.0 mg/kg/injection, schedule: Q04DX003 (ip), vehicle: saline with Tween-80
[14] = dose: 400.0 mg/kg/injection, schedule: Q04DX003 (ip), vehicle: saline with Tween-80
[15] = dose: 100.0 mg/kg/injection, schedule: Q04DX003 (ip), vehicle: saline
[16] = dose: 200.0 mg/kg/injection, schedule: Q04DX003 (ip), vehicle: saline
[17] = dose: 400.0 mg/kg/injection, schedule: Q01DX009 (ip), vehicle: saline
[18] = dose: 400.0 mg/kg/injection, schedule: Q04DX003 (ip), vehicle: saline
[19] = dose: 100.0 mg/kg/injection, schedule: Q04DX003 (ip), vehicle: Klucel (hydroxypropylcellulose) (HPC)
[20] = dose: 200.0 mg/kg/injection, schedule: Q04DX003 (ip), vehicle: Klucel (hydroxypropylcellulose) (HPC)
[21] = dose: 400.0 mg/kg/injection, schedule: Q04DX003 (ip), vehicle: Klucel (hydroxypropylcellulose) (HPC)

Measured: T/C

FC(F)(F)C1=NC(=S)C(c2[nH]c(C(F)(F)F)nc2S)=N1
inactive: dose: 25.0 mg/kg/injection, schedule: Q01DX009 (ip), vehicle: water 91 % of control | dose: 50.0 mg/kg/injection, schedule: Q01DX009 (ip), vehicle: water 96 % of control | dose: 100.0 mg/kg/injection, schedule: Q01DX009 (ip), vehicle: water 96 % of control | dose: 200.0 mg/kg/injection, schedule: Q01DX009 (ip), vehicle: water 110 % of control

CC(C)C(NCCNC(C(C)C)C(C)C)C(C)C
inactive: [1] 106 % of control | [2] 102 % of control | [3] 106 % of control

O=S(=O)(c1ccc(Nc2nnc(-c3ccccc3)s2)cc1)N1CCCCC1
inactive: [4] 96 % of control | [5] 89 % of control | [6] 86 % of control

O=[N+]([O-])c1ccc(N=Nc2c3ccccc3c(O)n2CO)c([N+](=O)[O-])c1
inactive: [7] 97 % of control | [8] 97 % of control | [9] 98 % of control

Nc1cc(N2CCCC2)nc(-c2ccccc2)n1
inactive: dose: 50.0 mg/kg/injection, schedule: Q01DX009 (ip), vehicle: saline with Tween-80 98 % of control | [10] 95 % of control

N#CC1(Nc2ccc(-c3ccc(NC4(C#N)CCCC4)cc3)cc2)CCCC1
inactive: dose: 50.0 mg/kg/injection, schedule: Q01DX001 (ip), vehicle: carboxymethylcellulose (CMC) 90 % of control | [11] 95 % of control | dose: 400.0 mg/kg/injection, schedule: Q01DX001 (ip), vehicle: carboxymethylcellulose (CMC) 88 % of control

COC(C(OC)N1CCOCC1)N1CCOCC1 (stereo unspecified)
inactive: [1] 102 % of control | [10] 95 % of control | [2] 110 % of control | [12] 93 % of control | dose: 132.0 mg/kg/injection, schedule: Q01DX009 (ip), vehicle: saline with Tween-80 90 % of control | dose: 200.0 mg/kg/injection, schedule: Q01DX009 (ip), vehicle: saline with Tween-80 101 % of control and 97 % of control | [13] 98 % of control | dose: 300.0 mg/kg/injection, schedule: Q01DX009 (ip), vehicle: saline with Tween-80 99 % of control | dose: 400.0 mg/kg/injection, schedule: Q01DX009 (ip), vehicle: saline with Tween-80 89 % of control | [14] 94 % of control

CCC1(C)NC(=O)NC1=O (stereo unspecified)
inactive: [1] 100 % of control | [7] 112 % of control | [2] 98 % of control | [15] 106 % of control | [8] 102 % of control | [3] 111 % of control | [16] 101 % of control | [9] 100 % of control | [17] 109 % of control | [18] 101 % of control

c1ccc(Cn2nnc(-c3ccccc3)n2)cc1
inactive: [15] 97 % of control | [16] 94 % of control | [18] 89 % of control

O=C(N/N=C\c1ccccc1Cl)c1ccco1
inactive: [11] 92 % of control | dose: 200.0 mg/kg/injection, schedule: Q01DX001 (ip), vehicle: carboxymethylcellulose (CMC) 86 % of control

Cc1cc(OCc2nc(N)nc(N)c2-c2ccc(Cl)c(Cl)c2)ccc1NC(=O)c1cc(S(=O)(=O)F)ccc1Cl
inactive: dose: 100.0 mg/kg/injection, schedule: Q01DX001 (ip), vehicle: saline with Tween-80 98 % of control | dose: 200.0 mg/kg/injection, schedule: Q01DX001 (ip), vehicle: saline with Tween-80 93 % of control | dose: 400.0 mg/kg/injection, schedule: Q01DX001 (ip), vehicle: saline with Tween-80 97 % of control

O=C(CCl)Nc1cccc2c1C(=O)c1c(c(O)c3ccccc3c1O)C2=O
inactive: [12] 94 % of control | [13] 92 % of control | [14] 90 % of control

CCSC(C(O)C(O)C(O)C(O)CO)n1ccc(=O)[nH]c1=O (stereo unspecified)
inactive: dose: 100.0 mg/kg/injection, schedule: Q01DX001 (ip), vehicle: Klucel (hydroxypropylcellulose) (HPC) 100 % of control | [19] 88 % of control | [12] 103 % of control | dose: 200.0 mg/kg/injection, schedule: Q01DX001 (ip), vehicle: Klucel (hydroxypropylcellulose) (HPC) 100 % of control | [3] 93 % of control | [20] 93 % of control | [13] 94 % of control | dose: 400.0 mg/kg/injection, schedule: Q01DX001 (ip), vehicle: Klucel (hydroxypropylcellulose) (HPC) 102 % of control | [17] 94 % of control | [21] 87 % of control | [14] 92 % of control

CC(=O)OC(C)C(=O)C1=C2CCCN2CCc2cc3c(cc21)OCO3 (stereo unspecified)
inactive: dose: 100.0 mg/kg/injection, schedule: Q04DX002 (ip), vehicle: Klucel (hydroxypropylcellulose) (HPC) 103 % of control | dose: 200.0 mg/kg/injection, schedule: Q04DX002 (ip), vehicle: Klucel (hydroxypropylcellulose) (HPC) 103 % of control | dose: 400.0 mg/kg/injection, schedule: Q04DX002 (ip), vehicle: Klucel (hydroxypropylcellulose) (HPC) 103 % of control

COC1OCC2OC(C)(C)OC2C1OS(C)(=O)=O (stereo unspecified)
inactive: [7] 107 % of control | [8] 112 % of control | [9] 97 % of control

NC(=O)CCCCCCCC(N)=O
inactive: [19] 89 % of control | [20] 89 % of control | [21] 94 % of control

O=C(NC(=S)Nc1ccc(F)cc1)c1cccc2ccccc12
inactive: [4] 96 % of control | [19] 104 % of control | [5] 91 % of control | [20] 100 % of control | [6] 101 % of control | [21] 97 % of control

Cc1cc(=O)oc2cc(OC(=O)Nc3ccc(F)c([N+](=O)[O-])c3)ccc12
inactive: [4] 101 % of control | [5] 107 % of control

O=C(OCC1OC(OC(=O)c2ccccc2)C(OC(=O)c2ccccc2)C(OC(=O)c2ccccc2)C1OC(=O)c1ccccc1)c1ccccc1 (stereo unspecified)
inactive: [7] 98 % of control | [8] 98 % of control | [9] 106 % of control

ClC(c1ccccc1)C1(Cl)C=c2ccccc2=C1 (stereo unspecified)
inactive: [4] 98 % of control | [19] 102 % of control | [5] 98 % of control | [20] 92 % of control | [6] 95 % of control | [21] 96 % of control
